# Patent publication US7648999B2, “Activator for peroxisome proliferator-activated receptor δ” (Nippon Chemiphar Co., Ltd., priority 2007, dated 2010)
# Tests used:
# [1] = molecular target: T1, PPARα (GAL4-hPPARα LBD) (Homo sapiens, UniProt Q07869); assay: PPARα transactivation activity (GAL4 chimera luciferase reporter in CV-1 cells); type: cell-based
# T1 construct: Receptor expression plasmid (GAL4-hPPARα, LBD GAL4-hPPARγ LBD, GAL4-hPPARδ LBD); expressed in transfected cells; host or cells: CV-1 cells
# T1 sequence (Q07869 239-466 limits assumed): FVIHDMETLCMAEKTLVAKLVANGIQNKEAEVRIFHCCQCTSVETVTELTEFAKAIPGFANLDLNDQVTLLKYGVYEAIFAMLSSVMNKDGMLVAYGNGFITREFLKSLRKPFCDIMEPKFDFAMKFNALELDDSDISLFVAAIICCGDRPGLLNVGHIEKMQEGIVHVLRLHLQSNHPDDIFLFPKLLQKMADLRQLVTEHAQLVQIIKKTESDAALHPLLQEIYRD
# [2] = molecular target: T2, PPARγ (GAL4-hPPARγ LBD) (Homo sapiens, UniProt P37231); assay: PPARγ transactivation activity (GAL4 chimera luciferase reporter in CV-1 cells); type: cell-based
# T2 construct: Receptor expression plasmid (GAL4-hPPARα, LBD GAL4-hPPARγ LBD, GAL4-hPPARδ LBD); expressed in transfected cells; host or cells: CV-1 cells
# T2 sequence (P37231 238-503 limits assumed): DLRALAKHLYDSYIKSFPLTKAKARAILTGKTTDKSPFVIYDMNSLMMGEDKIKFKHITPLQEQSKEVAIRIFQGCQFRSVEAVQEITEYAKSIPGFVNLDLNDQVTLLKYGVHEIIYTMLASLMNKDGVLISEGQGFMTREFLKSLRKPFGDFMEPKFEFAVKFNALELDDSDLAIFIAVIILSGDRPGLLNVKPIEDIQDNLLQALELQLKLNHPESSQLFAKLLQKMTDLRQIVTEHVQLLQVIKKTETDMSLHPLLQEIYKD
# [3] = molecular target: T3, PPARδ (GAL4-hPPARδ LBD) (Homo sapiens, UniProt Q03181); assay: PPARδ transactivation activity (GAL4 chimera luciferase reporter in CV-1 cells); type: cell-based
# T3 construct: A chimeric receptor expression plasmid (GAL4-hPPARδ LBD), a reporter plasmid (UASx4-TK-LUC); expressed in transfected cells; host or cells: CV-1 cells
# T3 sequence (Q03181 211-439 limits assumed): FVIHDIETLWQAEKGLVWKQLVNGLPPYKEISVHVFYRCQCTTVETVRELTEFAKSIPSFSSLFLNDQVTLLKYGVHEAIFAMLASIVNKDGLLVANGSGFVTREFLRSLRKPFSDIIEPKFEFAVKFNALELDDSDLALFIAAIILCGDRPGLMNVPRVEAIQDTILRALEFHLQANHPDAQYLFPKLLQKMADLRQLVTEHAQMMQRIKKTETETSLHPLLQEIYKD
# Protocol: A chimeric receptor expression plasmid (GAL4-hPPARδ LBD), a reporter plasmid (UASx4-TK-LUC) and β-galactosidase (β-GAL) are transfected into CV-1 cells by utilizing a lipofection reagent DMRIE-C (Life Technologies).
# (1) Measurement of PPARα, γ, δ Transactivation Activity
# CV-1 cells were obtained from Tohoku University Aging Medical Laboratory, Medical Cell Collection Center. All test compounds were dissolved in dimethylsulfoxide (DMSO). Final concentration of DMSO was 0.1%.
# CV-1 cells were seeded in 24 well culture plates at 2×10^5 cells per well, and cultured for 24 hours OPTI-MEM I Reduced Serum Medium (Life Technologies, 500 μL/well) containing 4%-fetal bovine serum (FBS). After washing with OPTI-MEM, transfection mixture (250 μL/well) containing 0.03 μg of GAL4-hPPARδ LBD, 0.25 μg of UASx-4-TK-LUC, 0.35 μg of βGAL, and 2 μL of lipofection reagent, DMRIE-C (Life Technologies) were added. The cells were incubated for 5 hours at 37° C.
# The cells were washed and incubated for 40 hours in the presence of the test compound (final concentration was 10^−7M or 10^−6M)
# The culture medium was removed and the cells were washed with PBS twice. A solubilizing buffer (100 μL/well) containing 25 mM Tris-PO4 (pH 7.8), 15% v/v glycerol, 2% CHAPS, 1% Lecithin, 1% BSA, 4 mM EGTA (pH 8.0), 8 mM MgCl2, 1 mM DTT was added. After the incubation for 10 minutes at room temperature, a portion (20 μL) of the solution was transferred into a 96-well plate. Subsequently, 100 μL of luciferase substrate solution (Piccagene: available from Nippon Gene Co., Ltd.) was added, and a luminous intensity per one second (luciferase activity) was measured using a microluminoreader (Type MLR-100, Corona Electrics Co., Ltd.). Each luciferase activity was corrected by the transfection efficiency which was calculated from β-galactosidase activity. The assay method of β-galactosidase activity was as follows: A portion (50 μL) of the solubilized sample was transferred into another 96-well plate; 100 μL of ONPG (2-nitrophenyl-β-galactopyranoside) solution was added and incubated for 5 minutes at room temperature. 50 μL of a reaction stopping solution (1M sodium carbonate solution) was added. Then the absorbance at 414 nm was measured.
# [4] = tested on: db/db mice; assay: HDL cholesterol elevating effect in db/db mice; type: in vivo; settings: for Ratio of increasing HDL cholesterol (% to control): 10 mg/kg/b.i.d. orally for one week, serum 16 hours after final administration; for HDL cholesterol elevating effect (in words): oral, one week twice daily
# Protocol: HDL cholesterol elevating effect was measured by using db/db mice, which are hereditary obesity mice. The db/db mice (10 weeks old) were divided into groups based on serum HDL cholesterol levels. […] Mice of the control group (to which no agent was administered) were orally given 1% methyl cellulose solution. After 16 hours from the final administration, blood sample was collected, and serum HDL cholesterol level was measured. HDL cholesterol was separated by electrophoresis on agarose gels (Chol/Trig Combo, Helena Laboratories). […] HDL cholesterol levels were calculated from total cholesterol levels and HDL cholesterol/total cholesterol ratios.
# Each value represents as % of the control group.
# [5] = compound at 10^−7 M (value without parentheses)
# [6] = compound at 10^−6 M (value in parentheses)
SMILES,"Relative activity for PPAR transactivation, α [1, 5]","Relative activity for PPAR transactivation, γ [2, 5]","Relative activity for PPAR transactivation, δ [3, 5]","Relative activity for PPAR transactivation, α [1, 6]","Relative activity for PPAR transactivation, γ [2, 6]","Relative activity for PPAR transactivation, δ [3, 6]",other results
"Cc1cc(C(=O)CCc2sc(-c3ccc(C(F)(F)F)cc3)nc2C(C)C)ccc1OC(C)(C)C(=O)O [Example 4, 2-[4-[3-[2-(4-Trifluoromethyl)phenyl-4-isopropyl-5-thiazolyl]propionyl]-2-methylphenoxy]-2-methylpropionic acid]",,,,,,,"Relative activity for PPAR transactivation, α ([1]; compound at 10^−7 M, CV-1 cells, 40 hours, positive control 10^−4 M WY-14643 = 100%): 11 % of control; Relative activity for PPAR transactivation, γ ([2]; compound at 10^−7 M, CV-1 cells, 40 hours, positive control 10^−5 M Rosiglitazone = 100%): 12 % of control; Relative activity for PPAR transactivation, δ ([3]; compound at 10^−7 M, CV-1 cells, 40 hours, positive control 10^−4 M L-165041 = 100%): 86 % of control; Ratio of increasing HDL cholesterol (% to control) [4]: 176 % to control; HDL cholesterol elevating effect (in words) [4]: excellent effect of increasing HDL cholesterol"
"Cc1cc(C=CCc2sc(-c3ccc(C(F)(F)F)cc3)nc2C(C)C)ccc1OCC(=O)O [Example 10, [4-[3-[4-Isopropyl-2-(4-trifluoromethyl)phenyl-5-thiazolyl]-1-propenyl]-2-methylphenoxy]acetic acid]",0 % of control,1 % of control,67 % of control,,,,Ratio of increasing HDL cholesterol (% to control) [4]: 134 % to control; HDL cholesterol elevating effect (in words) [4]: excellent effect of increasing HDL cholesterol
"CC(C)c1nc(-c2ccc(C(F)(F)F)cc2)sc1CCC(=O)c1ccc(OC(C)(C)C(=O)O)c(Cl)c1 [Example 34, [4-[3-[2-(4-Trifluoromethyl)phenyl-4-isopropyl-5-thiazolyl]propionyl]-2-chlorophenoxy]-2-methylpropionic acid]",5 % of control,3 % of control,66 % of control,,,,
"Cc1cc(C(=O)CCc2nc(-c3ccc(C(F)(F)F)cc3)sc2C(C)C)ccc1OC(C)(C)C(=O)O [Example 38, 2-[4-[3-[5-Isopropyl-2-(4-trifluoromethyl)phenyl-4-thiazolyl]propionyl]-2-methylphenoxy]-2-methylpropionic acid]",,,,(3) % of control,(9) % of control,(69) % of control,
"Cc1cc(C(=O)CCc2sc(-c3ccc(C(F)(F)F)cc3)nc2C(C)C)ccc1OC(C)C(=O)O (stereo not shown) [Example 43, 2-[4-[3-[4-Isopropyl-2-(4-trifluoromethyl)phenyl-5-thiazolyl]propionyl]-2-methylphenoxy]propionic acid]",3 % of control,5 % of control,42 % of control,,,,
"CCCCCCc1nc(-c2ccc(C(F)(F)F)cc2)sc1CC=Cc1ccc(OC(C)(C)C(=O)O)c(C)c1 [Example 45, 2-[4-[3-[4-Hexyl-2-(4-trifluoromethyl)phenyl-5-thiazolyl]-1-propenyl]-2-methylphenoxy]-2-methylpropionic acid]",90 % of control,20 % of control,49 % of control,,,,
"CCCCCCc1nc(-c2ccc(C(F)(F)F)cc2)sc1CCC(=O)c1ccc(C)c(OC(C)(C)C(=O)O)c1 [Example 46, 2-[5-[3-[4-Hexyl-2-(4-trifluoromethyl)phenyl-5-thiazolyl]propionyl]-2-methylphenoxy]-2-methylpropionic acid]",,,,(78) % of control,(69) % of control,(46) % of control,
"CCc1nc(-c2ccc(C(F)(F)F)cc2)sc1CCC(=O)c1ccc(OCC(=O)O)c(C)c1 [Example 47, [4-[3-[4-Ethyl-2-(4-trifluoromethyl)phenyl-5-thiazolyl]propionyl]-2-methylphenoxy]acetic acid]",0 % of control,0 % of control,57 % of control,,,,
"CCc1nc(-c2ccc(C(F)(F)F)cc2)sc1CCC(=O)c1ccc(OC(C)(C)C(=O)O)c(C)c1 [Example 48, 2-[4-[3-[4-Ethyl-2-(4-trifluoromethyl)phenyl-5-thiazolyl]propionyl]-2-methylphenoxy]-2-methylpropionic acid]",,,,(84) % of control,(13) % of control,(51) % of control,
